From ChEMBL document CHEMBL1140941 (J Med Chem, 2009)
Activity calls are given as the source filed them. No cut-off for these calls is given here.

How the values were obtained:
[1] = target: Oxysterols receptor LXR-alpha (Homo sapiens) (UniProt Q13133); experiment: Agonist activity at LXRalpha expressed in african green monkey CV1 cells co-expressing LXRE up to 10 uM by luciferase reporter gene assay relative to control; assay type: functional, cell-based; conditions: CV-1
[2] = AUC (0 to t) in CD rat at 3 mg/kg, iv; assay type: ADME, organism-based; set-up: dose 3 mg/kg, route intravenous; conditions: plasma
[3] = target: Vitamin D3 receptor (Homo sapiens) (UniProt P11473); experiment: Agonist activity at VP16-VDR expressed in african green monkey CV1 cells co-expressing MH100 up to 10 uM by luciferase reporter gene assay relative to control; assay type: functional, cell-based; conditions: CV-1
[4] = system: Mus musculus; experiment: Inhibition of preatherosclerotic lesion in LDLR knockout mouse model at 1 mg/kg, po administered for 6 weeks by en-face analysis; assay type: functional; set-up: scale not given: the % may be the effect or the level left
[5] = target: T1, Androgen receptor (Homo sapiens) (UniProt P10275); experiment: Agonist activity at human gal-AR expressed in african green monkey CV1 cells co-expressing MH100 with pGRIP1 co-factor up to 10 uM by luciferase reporter gene assay relative to control; assay type: functional, cell-based; conditions: CV-1
T1 sequence (whole entry): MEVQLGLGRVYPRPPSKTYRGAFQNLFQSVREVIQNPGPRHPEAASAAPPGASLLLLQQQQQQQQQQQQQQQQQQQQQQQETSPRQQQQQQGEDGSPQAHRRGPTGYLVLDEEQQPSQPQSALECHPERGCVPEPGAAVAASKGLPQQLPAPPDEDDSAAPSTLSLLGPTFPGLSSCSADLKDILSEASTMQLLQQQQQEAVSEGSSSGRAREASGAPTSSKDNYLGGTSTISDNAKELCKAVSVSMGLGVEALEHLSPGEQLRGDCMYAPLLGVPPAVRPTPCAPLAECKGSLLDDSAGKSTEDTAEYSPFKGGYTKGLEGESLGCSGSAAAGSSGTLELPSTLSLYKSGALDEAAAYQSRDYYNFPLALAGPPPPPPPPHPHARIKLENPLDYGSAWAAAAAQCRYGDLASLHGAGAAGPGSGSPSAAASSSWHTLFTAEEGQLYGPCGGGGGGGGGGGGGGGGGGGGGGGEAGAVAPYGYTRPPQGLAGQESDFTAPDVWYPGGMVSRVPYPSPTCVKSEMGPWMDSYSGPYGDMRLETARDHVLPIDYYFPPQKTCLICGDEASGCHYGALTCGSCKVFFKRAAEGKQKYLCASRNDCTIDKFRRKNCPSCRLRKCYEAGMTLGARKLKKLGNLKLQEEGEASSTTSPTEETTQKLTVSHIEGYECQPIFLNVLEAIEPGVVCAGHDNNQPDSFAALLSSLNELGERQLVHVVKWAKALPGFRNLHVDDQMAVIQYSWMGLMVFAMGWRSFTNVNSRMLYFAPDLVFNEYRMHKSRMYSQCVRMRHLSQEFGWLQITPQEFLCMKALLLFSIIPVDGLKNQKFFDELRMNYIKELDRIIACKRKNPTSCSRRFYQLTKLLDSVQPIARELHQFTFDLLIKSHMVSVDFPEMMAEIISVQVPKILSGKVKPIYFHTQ

[6] = target: T1, Androgen receptor (Homo sapiens); experiment: Antagonist activity at gal-AR expressed in african green monkey CV1 cells co-expressing MH100 with GRIP1 co-factor at 10 uM by luciferase reporter gene assay; assay type: functional, cell-based; conditions: CV-1
[7] = target: T2, Peroxisome proliferator-activated receptor gamma (Homo sapiens) (UniProt P37231); experiment: Agonist activity at PPARgamma expressed in african green monkey CV1 cells co-expressing PPRE up to 10 uM by luciferase reporter gene assay relative to control; assay type: functional, cell-based; conditions: CV-1
T2 sequence (whole entry): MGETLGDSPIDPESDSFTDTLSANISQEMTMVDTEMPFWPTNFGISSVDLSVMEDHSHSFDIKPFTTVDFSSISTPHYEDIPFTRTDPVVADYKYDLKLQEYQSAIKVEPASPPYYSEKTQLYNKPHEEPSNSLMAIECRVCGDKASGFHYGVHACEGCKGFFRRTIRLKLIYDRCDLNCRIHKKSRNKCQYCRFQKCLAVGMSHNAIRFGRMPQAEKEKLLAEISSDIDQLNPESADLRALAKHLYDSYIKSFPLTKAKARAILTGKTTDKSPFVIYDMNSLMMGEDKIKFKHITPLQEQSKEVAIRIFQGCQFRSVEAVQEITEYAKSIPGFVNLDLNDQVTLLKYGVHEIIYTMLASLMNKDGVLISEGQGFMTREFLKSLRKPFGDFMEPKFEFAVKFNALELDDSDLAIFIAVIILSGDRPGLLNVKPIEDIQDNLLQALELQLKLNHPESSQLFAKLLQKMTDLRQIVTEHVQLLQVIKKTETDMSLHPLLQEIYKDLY

[8] = target: Progesterone receptor (Homo sapiens, UniProt P06401); experiment: Antagonist activity at gal-PR expressed in african green monkey CV1 cells co-expressing MH100 by luciferase reporter gene assay; assay type: functional, cell-based, CV-1
[9] = target: Mineralocorticoid receptor (Homo sapiens, UniProt P08235); experiment: Antagonist activity at gal-MR expressed in african green monkey CV1 cells co-expressing MH100 by luciferase reporter gene assay; assay type: functional, cell-based, CV-1
[10] = system: Mus musculus; experiment: Inhibition of preatherosclerotic lesion in LDLR knockout mouse model at 3 mg/kg, po administered for 6 weeks by en-face analysis; assay type: functional; set-up: scale not given: the % may be the effect or the level left

Mineralocorticoid receptor, sequence (P08235 whole entry): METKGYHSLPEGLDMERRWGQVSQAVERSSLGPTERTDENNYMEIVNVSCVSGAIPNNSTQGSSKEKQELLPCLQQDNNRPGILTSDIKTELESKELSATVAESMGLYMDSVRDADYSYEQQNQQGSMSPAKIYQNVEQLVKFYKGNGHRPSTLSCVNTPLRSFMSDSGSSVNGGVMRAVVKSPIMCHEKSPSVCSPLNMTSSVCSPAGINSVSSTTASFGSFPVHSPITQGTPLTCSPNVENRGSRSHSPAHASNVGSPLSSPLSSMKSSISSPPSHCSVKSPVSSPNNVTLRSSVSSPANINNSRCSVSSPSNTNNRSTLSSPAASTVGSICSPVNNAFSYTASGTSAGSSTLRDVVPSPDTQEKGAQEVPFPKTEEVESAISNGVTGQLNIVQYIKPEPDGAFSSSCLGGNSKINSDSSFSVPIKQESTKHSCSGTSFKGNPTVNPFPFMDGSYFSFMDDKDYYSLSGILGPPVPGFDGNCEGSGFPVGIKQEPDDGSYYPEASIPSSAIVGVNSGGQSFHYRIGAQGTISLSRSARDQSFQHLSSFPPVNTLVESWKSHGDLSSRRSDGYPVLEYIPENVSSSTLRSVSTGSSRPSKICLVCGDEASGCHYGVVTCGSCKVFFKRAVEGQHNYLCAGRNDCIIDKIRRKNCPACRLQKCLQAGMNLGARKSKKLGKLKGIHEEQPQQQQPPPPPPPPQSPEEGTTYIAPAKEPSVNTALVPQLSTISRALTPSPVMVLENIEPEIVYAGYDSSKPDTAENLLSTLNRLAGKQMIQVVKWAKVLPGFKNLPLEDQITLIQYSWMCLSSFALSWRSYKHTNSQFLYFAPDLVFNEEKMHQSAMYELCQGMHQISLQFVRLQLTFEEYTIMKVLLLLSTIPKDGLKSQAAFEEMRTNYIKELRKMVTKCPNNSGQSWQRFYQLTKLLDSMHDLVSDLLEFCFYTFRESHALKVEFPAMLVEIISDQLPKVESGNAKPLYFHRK
Progesterone receptor, sequence (P06401 whole entry): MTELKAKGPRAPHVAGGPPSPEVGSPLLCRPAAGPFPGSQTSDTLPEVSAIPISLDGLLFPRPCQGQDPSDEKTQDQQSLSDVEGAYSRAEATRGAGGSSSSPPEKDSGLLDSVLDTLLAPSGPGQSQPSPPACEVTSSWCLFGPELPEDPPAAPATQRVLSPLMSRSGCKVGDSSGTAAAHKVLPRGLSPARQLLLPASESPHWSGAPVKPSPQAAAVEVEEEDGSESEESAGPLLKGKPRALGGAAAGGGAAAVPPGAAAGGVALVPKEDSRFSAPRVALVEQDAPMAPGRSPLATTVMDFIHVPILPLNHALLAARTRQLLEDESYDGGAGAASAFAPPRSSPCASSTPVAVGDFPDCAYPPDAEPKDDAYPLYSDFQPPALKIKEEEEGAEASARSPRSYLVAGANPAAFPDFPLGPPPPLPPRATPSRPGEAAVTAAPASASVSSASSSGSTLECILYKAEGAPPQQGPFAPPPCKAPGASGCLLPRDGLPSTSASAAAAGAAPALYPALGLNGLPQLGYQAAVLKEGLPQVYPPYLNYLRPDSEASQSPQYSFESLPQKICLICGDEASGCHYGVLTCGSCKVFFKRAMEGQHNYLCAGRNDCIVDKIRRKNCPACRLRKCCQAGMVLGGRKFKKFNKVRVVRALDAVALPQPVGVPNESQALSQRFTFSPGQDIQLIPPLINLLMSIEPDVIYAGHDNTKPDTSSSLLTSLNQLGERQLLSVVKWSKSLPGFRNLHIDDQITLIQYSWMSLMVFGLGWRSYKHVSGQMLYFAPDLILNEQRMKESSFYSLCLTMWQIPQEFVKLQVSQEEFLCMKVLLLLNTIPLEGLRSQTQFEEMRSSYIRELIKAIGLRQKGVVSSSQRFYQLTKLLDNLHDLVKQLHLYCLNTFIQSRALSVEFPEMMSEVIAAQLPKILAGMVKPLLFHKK
Oxysterols receptor LXR-alpha (Homo sapiens), sequence (Q13133 whole entry): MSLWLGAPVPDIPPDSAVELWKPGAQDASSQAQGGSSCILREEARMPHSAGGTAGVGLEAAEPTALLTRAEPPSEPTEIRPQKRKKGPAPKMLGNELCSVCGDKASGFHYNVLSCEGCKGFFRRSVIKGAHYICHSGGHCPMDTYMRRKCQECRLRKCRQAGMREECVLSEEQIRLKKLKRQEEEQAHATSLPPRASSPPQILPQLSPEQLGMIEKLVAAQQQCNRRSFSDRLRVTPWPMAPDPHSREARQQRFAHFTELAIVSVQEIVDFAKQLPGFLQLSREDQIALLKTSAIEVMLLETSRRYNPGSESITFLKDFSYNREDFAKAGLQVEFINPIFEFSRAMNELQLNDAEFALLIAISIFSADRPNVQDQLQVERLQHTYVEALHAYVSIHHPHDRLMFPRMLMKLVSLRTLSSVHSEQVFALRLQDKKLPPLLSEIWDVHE
Vitamin D3 receptor (Homo sapiens), sequence (P11473 whole entry): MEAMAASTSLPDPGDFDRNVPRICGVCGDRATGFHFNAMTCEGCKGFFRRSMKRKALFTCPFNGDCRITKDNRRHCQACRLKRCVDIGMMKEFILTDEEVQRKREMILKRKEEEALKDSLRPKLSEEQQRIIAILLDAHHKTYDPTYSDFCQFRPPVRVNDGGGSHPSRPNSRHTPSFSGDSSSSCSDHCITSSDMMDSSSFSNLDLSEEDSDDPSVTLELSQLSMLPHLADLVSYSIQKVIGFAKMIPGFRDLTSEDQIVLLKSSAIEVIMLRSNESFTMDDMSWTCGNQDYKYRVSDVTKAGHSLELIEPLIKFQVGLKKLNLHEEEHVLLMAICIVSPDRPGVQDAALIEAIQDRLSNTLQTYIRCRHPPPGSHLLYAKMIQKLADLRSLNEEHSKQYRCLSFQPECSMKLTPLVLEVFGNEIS

- Activity [1]: inactive
- AUC(0-t) [2]: 19.1 µM·h
- Activity [3]: inactive
- Activity [5]: inactive
- inhibition [6]: 26%
- Activity [7]: inactive
- IC50 [8]: 10 µM
- IC50 [9]: 10 µM
SMILES: CC(C)OC(=O)C1=CN(C(=O)c2ccc(F)c(F)c2)CC(C)(C)c2c1[nH]c1ccccc21 [TUROFEXORATE ISOPROPYL]
- Activity [4]: 18%
- Activity [10]: 36%
